# According to article PMC9959349, “Discovery of the 3-Amino-1,2,4-triazine-Based Library as Selective PDK1 Inhibitors with Therapeutic Potential in Highly Aggressive Pancreatic Ductal Adenocarcinoma” (International Journal of Molecular Sciences, 2023):
# Assays:
# PSN-1 cells = assay: ROS production (CM-H2DCFDA); type: cell-based, human; conditions: 5 µM test compounds, antimycin 3 µM as positive control
# Experimental: Consistently, tested compounds, although to different extents, were effective in reducing total cellular sulfhydryl contents in PSN-1-treated cells (Figure 9B).
# The production of ROS was measured in PSN-1 cells (10^4 per well) grown for 24 h in a 96-well plate in RPMI medium without phenol red (Sigma Aldrich, Germany). Cells were then washed with PBS and loaded with 10 μM 5-(and-6)-chloromethyl-2′,7′-dichlorodihydrofluorescein diacetate acetylester (CM–H2DCFDA) (Molecular Probes-Invitrogen, Eugene, OR, USA) for 45 min, in the dark. Afterward, cells were washed with PBS and incubated with tested compounds. Fluorescence increase was estimated utilizing the wavelengths of 485 nm (excitation) and 527 nm (emission) in a VICTOR X3 (PerkinElmer, USA) plate reader. Antimycin (3 μM, Sigma Aldrich), a potent inhibitor of Complex III in the electron transport chain, was used as the positive control.
# BxPC-3 cells = assay: 3D spheroid cytotoxicity, acid phosphatase (APH) assay, BxPC-3; conditions: read-out: IC50 ±S.D. BxPC-3 (3D cytotoxicity); spheroids, 72 h, APH test
# Experimental: The PDAC cancer spheroids were treated with tested compounds for 72 h, and cell viability was assessed by means of the acid phosphatase (APH) assay (Table 3).
# An APH-modified assay was used for determining cell viability in 3D spheroids, as previously described [61]. Briefly, the pre-seeded spheroids were treated with fresh medium containing the compound to be studied at the appropriate concentration (range 2.5–200 μM). Triplicate cultures were established for each treatment. After 72 h, each well was treated with 100 μL of the assay buffer (0.1 M sodium acetate, 0.1% Triton-X-100, supplemented with ImmunoPure p-nitrophenyl phosphate; Sigma Chemical Co., Ltd.) and, following 3 h of incubation, 10 μL of 1 M NaOH solution was added. […] The mean absorbance for each drug dose was expressed as a percentage of the control untreated well absorbance (T/C) and plotted vs. drug concentration. […] The evaluation was based on means from at least four independent experiments.
# recombinant human HSP90 = recombinant human HSP90 (Homo sapiens, UniProt P07900); assay: HSP90 inhibition assay (Transcreener ADP kit); type: biochemical; conditions: 1.5 µM compound (equivalent doses)
# Experimental: The in vitro inhibitory activity of tested compounds on recombinant human HSP90 was assessed by The Transcreener™ ADP kit (Bellbrook Labs) according to the manufacturer’s protocol. Human recombinant HSP90 protein was incubated with tested compounds in the presence of 250 μM ATP at 37 °C for 30 min, 4°C for 30 min and ATPase activity was stopped via the addition of the stop and detect buffer. Following this, samples were incubated for 1 h at room temperature with the ADP2 Antibody and the ADP Alexa594 Tracer. The fluorescence intensity polarization of samples was measured with a Tecan plate reader (Tecan Infinite® M200). The evaluation was based on means from at least three independent experiments.
smiles,measurement,setting,value
Cn1cc(-c2nnc(N)nc2-c2cn(C)c3ccc(F)cc23)c2ccccc21 [5i],ROS basal level production / hydrogen peroxide formation,PSN-1 cells,even higher than that provoked by antimycin
same,IC50,BxPC-3 cells,34.1 ± 1.5 µM
same,decrease of HSP90 catalytic activity,recombinant human HSP90,60–80%
